Patent publication EP2982368A1, “Small molecule compounds displacing focal adhesion core components” (Universität Konstanz, priority 2014, dated 2016)
“Also recorded” adds a separate entry of the source.

What was measured:
focal adhesion proteins = experiment: Localization of focal adhesion proteins (fluorescent fusion proteins) in presence of Mb31; format: cell-based, Mouse; settings: 10 µM Mb31, 30 min; value is the protein
Description: (§1) In order to investigate the kinetics of FAK displacement at focal adhesions a time series was performed. GFP-FAK MEFs were treated with 20 µM of Mb31 or Mb36 and fixed after different time points. […] Mb36 kinetic was slightly slower with FAK delocalization after 20 min. In addition, GFP-FAK MEFs were treated with increasing concentrations of Mb31 or Mb36 to determine the minimum concentration required to interfere with FAK localization. Untreated or solvent (DMSO) treated cells show the expected localization of FAK at focal adhesions. […] Already 2 µM of Mb31 were sufficient to induce FAK displacement. […] Due to the faster kinetic and lower IC50 compared to Mb36 further studies were mainly performed using Mb31. […] In contrast, vinculin localization and the focal adhesion localization of talin, α-actinin, and zyxin is not disturbed (Figure 5 and Table 1).
Mouse embryonic fibroblasts expressing the indicated proteins as fluorescent fusion proteins were incubated with 10 µM Mb31 or solvent alone for 30 min. Afterwards, the cells were fixed and the localization of the focal adhesion proteins was analyzed microscopically.

FAK = target: T1, FAK (Mus musculus, UniProt P34152); experiment: GFP-FAK displacement from focal adhesions (fluorescence imaging, ImageJ quantification of focal adhesions per cell); format: cell-based; settings: for IC50: GFP-FAK MEFs on fibronectin, 1 h incubation, focal adhesions per cell, Hill slope model, read-out: IC50 (displacement of FAK from focal adhesions, cellular IC50); for time to FAK displacement, vinculin localization not disturbed: GFP-FAK MEFs stably expressing mKate-vinculin, 40 µM; for time to FAK displacement from focal adhesions: 20 µM, time series; for concentration sufficient to induce FAK displacement: increasing concentrations
T1 construct: expressed in transfected cells; host or cells: FAK-/- (p53-/-) mouse embryonic fibroblasts stably re-expressing GFP-FAK
T1 sequence (P34152 whole entry): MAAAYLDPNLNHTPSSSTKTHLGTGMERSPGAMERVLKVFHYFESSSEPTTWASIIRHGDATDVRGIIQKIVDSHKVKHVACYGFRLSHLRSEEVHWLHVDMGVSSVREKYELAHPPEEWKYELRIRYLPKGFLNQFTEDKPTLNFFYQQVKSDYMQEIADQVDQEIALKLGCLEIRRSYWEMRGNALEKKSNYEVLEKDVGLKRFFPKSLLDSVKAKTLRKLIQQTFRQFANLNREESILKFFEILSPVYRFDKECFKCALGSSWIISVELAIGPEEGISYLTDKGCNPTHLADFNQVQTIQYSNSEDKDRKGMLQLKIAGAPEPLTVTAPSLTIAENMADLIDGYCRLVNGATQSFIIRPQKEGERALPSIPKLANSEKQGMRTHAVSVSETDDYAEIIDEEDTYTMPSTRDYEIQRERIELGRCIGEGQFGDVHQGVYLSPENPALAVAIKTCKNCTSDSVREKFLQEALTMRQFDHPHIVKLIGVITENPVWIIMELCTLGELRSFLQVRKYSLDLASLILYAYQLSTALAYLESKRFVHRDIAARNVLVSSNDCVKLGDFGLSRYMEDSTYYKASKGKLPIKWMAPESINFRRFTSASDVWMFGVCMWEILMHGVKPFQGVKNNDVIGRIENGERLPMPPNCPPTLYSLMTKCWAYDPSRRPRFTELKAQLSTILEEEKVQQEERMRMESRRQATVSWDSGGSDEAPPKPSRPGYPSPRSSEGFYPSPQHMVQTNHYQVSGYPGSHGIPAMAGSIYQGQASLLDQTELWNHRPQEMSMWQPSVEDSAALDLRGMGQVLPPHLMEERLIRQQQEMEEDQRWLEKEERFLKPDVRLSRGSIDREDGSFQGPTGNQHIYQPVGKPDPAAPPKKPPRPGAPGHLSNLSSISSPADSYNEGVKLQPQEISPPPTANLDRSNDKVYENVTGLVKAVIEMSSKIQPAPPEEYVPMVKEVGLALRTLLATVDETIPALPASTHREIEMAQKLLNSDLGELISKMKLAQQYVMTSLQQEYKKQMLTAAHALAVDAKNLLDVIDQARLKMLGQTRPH
Source text: Ectopic expression of FRNK as a dominant negative inhibitor of FAK effectively blocks FAK dependent events. This type of interference seems to be used physiologically for regulation of FAK function in certain cell types (Taylor et al. 2001). However, there is currently no possibility to instantaneously interfere with FAK localization. Therefore, the inventors sought to identify small molecules to disrupt FAK mediated protein-protein-interactions. Towards this line they set-up a High Content Screen based on FAK-/- MEFs re-expressing GFP-FAK to visualize FAK localization at focal adhesions. Cells were seeded on fibronectin and incubated to allow adherence and spreading. Prior to fixation, cell nuclei were Hoechst stained. FAK containing focal adhesions and cells per field of view were quantified using a custom-made macro for ImageJ. The macro identifies focal adhesions due to local maxima of fluorescence intensity in the GFP-channel. Cells were counted in the Hoechst channel based on a binary image. Closely connected cell nuclei were separated by a watershed algorithm. […] Next, as a proof of principle GFP-FAK MEFs were transduced to express mKate2-tagged FRNK. mKate2-FRNK localizes to focal adhesions, where it efficiently displaces GFP-FAK (Figure 2). […] Consequently, the software can correctly identify FAK displacement from focal adhesions.
In order to find small molecules which induce the specific delocalization of FAK, two commercial compound libraries with more than 17.000 entries were screened. GFP-FAK MEFs were seeded on fibronectin in multi-well plates and compounds were transferred to the cells with a robot to a final concentration of 40 µM. Cells were incubated for 4 h and nuclei were Hoechst stained prior to fixation. Cells were imaged with an automated microscope and data were analyzed with the ImageJ macro. In the first screening round the macro identified 108 hits, which were curated by visual inspection to exclude instances of dramatic cell rounding and/or detachment. […] To validate these primary hits the inventors transduced the GFP-FAK MEFs to stably express mKate-vinculin, which serves as a FAK-independent marker of focal adhesions and facilitates indication of specific FAK displacement. On a first approach two compounds were identified, which induced FAK displacement within less than 1 h, while vinculin localization was not disturbed (Figure 4). […] Strikingly, they share distinct structural characteristics since both compounds have a NO2-group and an isosteric halogen-substituted phenyl- or thiophene-group (Figure 5).
as §1
About 17.000 compounds (40 µM working concentration) were screened for their ability to displace GFP-FAK from focal adhesions (FA) using an automated microscope (ImageXpress Micro, Molecular Devices, Ismaning, Germany) equipped with a Nikon 20x/0.75 NA CFI Plan Apo objective. […]

focal adhesions = experiment: Focal adhesion dynamics by TIRF microscopy (mKate-vinculin); format: cell-based, mouse; settings: 5 µM, 40 minutes
paxillin [1] = target: T2, paxillin (Mus musculus, UniProt Q8VI36); experiment: Paxillin displacement in FAK-deficient MEFs (immunostaining, confocal microscopy); format: cell-based
T2 construct: endogenous in cells; host or cells: FAK-/- mouse embryonic fibroblasts
T2 sequence (Q8VI36 whole entry): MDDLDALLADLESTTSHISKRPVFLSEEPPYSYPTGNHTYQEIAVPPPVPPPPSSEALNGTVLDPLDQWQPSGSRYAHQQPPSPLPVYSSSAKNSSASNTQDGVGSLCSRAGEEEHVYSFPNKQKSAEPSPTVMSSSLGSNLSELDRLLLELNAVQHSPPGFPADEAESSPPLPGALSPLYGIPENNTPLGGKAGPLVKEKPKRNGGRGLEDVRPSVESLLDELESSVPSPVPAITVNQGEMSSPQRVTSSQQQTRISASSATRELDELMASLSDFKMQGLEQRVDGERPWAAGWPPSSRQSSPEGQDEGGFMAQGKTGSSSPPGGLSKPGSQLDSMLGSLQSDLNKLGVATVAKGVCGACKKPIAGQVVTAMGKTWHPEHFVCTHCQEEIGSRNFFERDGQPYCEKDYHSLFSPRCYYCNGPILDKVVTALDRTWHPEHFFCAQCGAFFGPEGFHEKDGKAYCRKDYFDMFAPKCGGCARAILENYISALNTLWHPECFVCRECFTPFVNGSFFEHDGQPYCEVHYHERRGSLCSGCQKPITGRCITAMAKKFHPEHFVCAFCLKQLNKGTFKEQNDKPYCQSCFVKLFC

paxillin [2] = experiment: Paxillin displacement in GFP-FAK MEFs (antibody staining, live cell imaging of mKate-paxillin); format: cell-based, mouse; settings: 10 µM
Description: The C-terminal focal adhesion targeting domain of FAK binds to paxillin and talin and is responsible for an efficient recruitment of FAK to focal adhesions. Therefore, it was further investigated whether Mb31 targets FAK directly or possibly in an indirect way by displacement of FAK binding proteins paxillin or talin, respectively. GFP-FAK MEFs were treated with 10 µM of Mb31 and analyzed for paxillin and talin localization via antibody staining. […] To analyze whether FAK and paxillin displacement occur with the same temporal pattern GFP-FAK MEFs were transiently transfected to express mKate-tagged paxillin and living cells were imaged after application of 10 µM of Mb31. Along with FAK, paxillin delocalized rapidly and within 10 min almost no paxillin and FAK remained at focal adhesions. Strikingly, in cells over-expressing paxillin higher Mb31 concentrations were necessary in order to achieve efficient FAK displacement. In non-transfected cells already 4 to 5 µM Mb31 were sufficient, whereas in cells with strong over-expression of paxillin even at 10 µM FAK and paxillin displacement was only partial. […] Still, vinculin localization was not altered in FAK-deficient MEFs treated with Mb31.
MEFs were seeded on fibronectin fragment (4 µg/ml in PBS) in multi-well plates (Greiner Bio-One) and incubated for 4 h to allow spreading. Cells were fixed and permeabilized with MeOH at -20°C after pre-fixation with 4% paraformaldehyde. Cells were blocked with 10% CS in PBS (blocking buffer) and incubated with primary antibodies (α-talin, α-paxillin or α-vinculin) in blocking buffer for 1 h at room temperature. Cells were washed three times with PBS and were incubated with appropriate fluorescently labeled secondary antibodies. Cells were washed again with PBS to remove excess antibodies and were imaged using a Leica AF6000LX fluorescence microscope. To analyze reversibility compound treated cells were washed three times with pre-warmed growth medium. After washout cells were incubated 1 h in presence of 10 µg/ml cycloheximide. […]

SMILES | Displaced from focal adhesions (focal adhesion proteins) | No effect on localization (focal adhesion proteins) | IC50 (FAK) | time to FAK displacement, vinculin localization not disturbed (FAK) | time to FAK displacement from focal adhesions (FAK; GFP-FAK MEFs) | concentration sufficient to induce FAK displacement (FAK; GFP-FAK MEFs) | concentration sufficient for efficient FAK displacement (FAK; second approach, narrower concentration range (1-5 µM)) | nascent adhesion formation and mobility of mature adhesions (focal adhesions) | paxillin displacement in FAK knockout MEFs (paxillin [1]; 30 min) | concentration efficiently displacing paxillin (paxillin [1]; FAK-/- MEF cells, 30 min, 1, 10, or 20 µM) | FAK and paxillin displacement in cells with strong over-expression of paxillin (paxillin [2]) | paxillin localization (paxillin [2]; 30 min, antibody staining) | time until almost no paxillin and FAK remained at focal adhesions (paxillin [2]; living cells expressing mKate-tagged paxillin) | effect on FAK localization (FAK; GFP-FAK MEFs, 2 µM)
O=[N+]([O-])C=Cc1cc(Br)cs1 [FootLocker 1, 4-bromo-2-(2-nitrovinyl)thiophene] | Focal adhesion kinase (FAK) and Paxillin and Grb2 and CRKII | Talin; also recorded: α-actinin; also recorded: Vinculin; also recorded: Zyxin | ~2 µM | less than 1 h | ≤ 5 min | 2 µM | about 4 µM | nascent adhesion formation was absent and mature adhesions were immobile | efficiently displaced | > 1 µM | only partial | displaced from focal adhesions | ≤ 10 min | –
Nc1ccc(SC(C[N+](=O)[O-])c2ccc(Cl)cc2)cc1 (stereo not drawn) [FootLocker 2, 4-{[1-(4-chlorophenyl)-2-nitroethyl]thio}aniline] | – | – | ~4.1 µM | less than 1 h | 20 min | 5 µM | – | – | – | – | – | – | – | no effect was observed
